In ChEMBL document CHEMBL1125463, “Inhibition of N8-acetylspermidine deacetylase by active-site-directed metal coordinating inhibitors” (J Med Chem, 1992) one finds Ki, Ki app and Km data, which are given here for 14 compounds.

Experiment [1] in a line: In vitro inhibition of N8-Acetylspermidine deacetylase from rat liver cytosol(apparent Ki). The following applies: for Ki: read-out: Ki app.
Experiment [2] can be described thus: (§1) In vitro inhibition of N8-Acetylspermidine deacetylase from rat liver cytosol. The following applies: read-out: Ki app.
The species named for experiment [3] is Rattus norvegicus. The experiment is described as §1.
Experiment [4] in a line: In vitro inhibition of N8-Acetylspermidine deacetylase from rat liver cytosol(apparent Ki); Ni means no inhibition.

In the case of `NCCCNCCCCCC(=O)NO`, the Ki in experiment [1] was 0.001 µM. As for `NCCCNCCCCCC(=O)O`, the Ki in experiment [2] came to 0.011 mM. Turning to `CC(=O)NCCCCN`, the Ki in experiment [1] was 800 µM. `c1cnc2ccc3ncccc3c2c1`: the Ki app entry in experiment [1] is “No inhibition”. On to `CC(=O)NCCCCNCCCN`, for which the Km in experiment [3] is 11 µM. For the compound `NCCCCC(=O)O` [5-AMINOVALERIC ACID], the Ki in experiment [1] worked out at 4100 µM. On the same count and under the same terms, the result for `NCCCCCC(=O)O` [AMINOCAPROIC ACID] reads 50 µM. As for `c1ccc(-c2ccccn2)nc1` [DIPYRIDYL], the Ki in experiment [2] stood at 1.9 mM. The same measure, in the same setting: the result for `O=C(O)CN(CCN(CC(=O)O)CC(=O)O)CC(=O)O` [EDETIC ACID] reads 3.5 mM. With `NC(=O)CI` [IODOACETAMIDE], the Ki app result in experiment [4] is given as “Not Active”.

For the compound `CCN1C(=O)C=CC1=O` [N-ETHYLMALEIMIDE], the Ki in experiment [1] worked out at 860 µM. Still for that read-out and setting: in the case of `c1cnc2c(c1)ccc1cccnc12` [PHENANTHROLINE] it was 1300 µM; in that of `CCCC(=O)[O-].[Na+]` [SODIUM BUTYRATE], 38500 µM; in that of Para-Hydroxymercuribenzoic acid, 150 µM.

What is called Km is the concentration of substrate that gives half-maximal velocity.
